Legend:
[1] = system: CD8+ T cells; assay: CD8+ T cell survival with sPD-L1-rich Karpas-299 supernatant, with or without checkpoint inhibitors (trypan blue); format: cell-based, human; conditions: with sPD-L1-rich Karpas-299 supernatant, therapeutic doses of checkpoint inhibitor, n=3, FIG. 5B
Experimental: FIG. 5A is a graph plotting survival of CD8+ human T cells cocultured in the presence of PBS control or 5 μg/ml or 10 μg/ml recombinant sPD-L1. […] FIG. 5B is a graph plotting survival of CD8+ human T cells cultured in the presence of PBS control or sPD-L1-rich Karpas-299 cell line supernatant, in the presence or absence of PD1 or PD-L1 checkpoint inhibitors. Cell survival was measured by trypan blue staining. […] FIGS. 5C and 5D are a series of flow cytometry plots indicating survival of CD8+ T cells treated with various cell extracts and an anti-PD-1 antibody (nivolumab or pembrolizumab) or an anti-PD-L1 antibody (atezolizumab). FIG. 5C, CD8+ T cells isolated from healthy subjects were incubated with sPD-L1-rich supernatants from Karpas-299 cells, supernatants from Karpas-299 cells treated with inhibitor TAPI-0, supernatants from Karpas-299 cells “spiked” with TAPI-0 after isolation, and controls (top), and TMRE uptake/Annexin-V binding was measured by flow cytometry to assess the level of CD8+ T cell survival. CD8+ T cells also were incubated with supernatants from Karpas-299 cells, plus the indicated doses of anti-PD-1 and anti-PD-L1 antibodies (bottom). FIG. 5D, CD8+ T cells were incubated with PD-L1-rich supernatants from A787-0 RCC cells and the indicated concentrations of pembrolizumab. […]

[2] = system: CD8+ T cells; assay: CD8+ T cell survival with Karpas-299 supernatants, TMRE/Annexin-V flow cytometry; format: cell-based, human
Experimental: CD8+ T cells isolated from healthy subjects were incubated in the presence of 50% Karpas-299 supernatants of varying types and 50% fresh cell culture media. Supernatant types included sPD-L1-rich supernatants from Karpas-299 cells, supernatants from Karpas-299 cells treated with TAPI-0 to prevent sPL-L1 production, supernatants from Karpas-299 cells “spiked” with TAPI-0 after sPD-L1 production, and fresh culture media controls (FIG. 5C). Karpas-299 cell supernatants were generated by incubation at 10 MM cells/ml for 48 hours. TMRE/Annexin-V binding was measured by flow cytometry to assess the level of CD8+ T cell survival. Antibodies and reagents used for flow cytometry were Annexin-V-FITC, anti-mouse CD16/32 (BioLegend; San Diego, Calif.); anti-PD-L1, mouse isotype control (eBioScience/Thermo Fisher Scientific; Waltham, Mass.), TMRE-PE (Abcam; Cambridge, Mass.), BD Wash/Perm (Becton Dickenson; Waltham, Mass.). Flow cytometry was performed and analyzed using FlowJo (Treestar; Ashland, Oreg.).
CD8+ T cells were incubated with supernatants from Karpas-299 cells as above, plus varying doses of several anti-PD-1 antibodies.
(§1) Karpas-299 lymphoma cells producing sB7-H1 were cultured with an array of protease inhibitors. Supernatants from these cultures were isolated and analyzed for sB7H1 concentration by ELISA. Subsequently, activated human CD8+ T cells were cultured with recombinant sB7H1 protein and cell survival was measured at 24 hours. CD8+ T cells also were cultured with sB7H1-rich tumor cell line supernatants versus sB7H1-depleted supernatants over 48 hours in the presence of placebo, low dose (10 nM), or high dose (1 μM) anti-PD-1 antibody pembrolizumab, and cell survival was measured.

[3] = system: A549 cells; assay: PD-L1 flow cytometry of A549 cells; format: cell-based; conditions: vs DMSO, FIGS. 7C, 7D
Experimental: FIGS. 7A and 7B are flow cytometry plots and graphs showing that cell PD-L1 expression is restored by treatment with an inhibitor of ADAM10 and/or ADAM17, and is decreased by treatment with exogenous recombinant ADAM10 or ADAM17. Cells were incubated in the presence of the indicated treatments, and PD-L1 flow cytometry was performed.

[4] = system: A549 cells; assay: sPD-L1 in supernatants of A549 cells treated with exogenous ADAM17; format: cell-based; conditions: exogenous ADAM17 vs PBS control, FIG. 4G
[5] = system: Dul45 prostate cancer cells; assay: sPD-L1 ELISA of supernatants of Dul45 prostate cancer cells; format: cell-based; conditions: FIG. 4C
Experimental: (§2) Several tumor cell lines were treated with PBS (placebo) or with various protease inhibitors, including matrix metalloprotease inhibitors TAPI-2 and TAPI-0, aspartic protease inhibitor Pepstatin, cysteine protease inhibitor E-64, serine protease inhibitor Aprotinin, combinations of these inhibitors, and an array of other matrix metalloprotease inhibitors. Cell supernatants were queried for sPD-L1 by ELISA as published elsewhere (Frigola et la., supra). In brief, paired mouse IgG2 monoclonal antibodies against extracellular rhB7-H1 were utilized in a capture-detection plate assay using biotinylation and HRP-streptavidin detection. […] Concentrations were determined by optical density measurements along a known standard curve of rhB7-H1. Karpas-299 cells were incubated at 10 MM cells per ml in cell culture media (RPMI plus FBS plus Penicillin/Streptomycin plus buffering reagents) over 24 hours in the presence of 1 μl/100 μl DMSO or PBS (placebo), TAPI-2 at 278 μM, Pepstatin at 206.5 μM, E-64 at 185 μM, or Aprotinin at 220 μM, or a combination of the above materials at various concentrations. […] All statistical analyses were performed using R! software. Two-sided, unpaired Student t tests assessed statistical differences in experimental groups except where otherwise indicated. P values indicate comparison to vehicle control groups. P<0.05 was considered statistically significant.
Further studies were conducted using different types of cells.

[6] = system: Karpas-299 cells; assay: sPD-L1 ELISA of supernatants of Karpas-299 cells treated with protease inhibitors; format: cell-based; conditions: for Karpas-299 production of sB7H1: Example 3, supernatants by ELISA, p<0.0001
Experimental: as §2
Subsequent studies were conducted in which Karpas-299 cells were incubated with different matrix metalloprotease inhibitors with varying specificities. For example, Karpas-299 cells were incubated at 10 MM cells per ml in cell culture media over 24 hours in the presence of 1 μl/100 μl DMSO (control), 50 μM TAPI-2, 50 μM TAPI-0, 50 μM GI254023X, 5 μM Ro 32-3555, 5 μM ARP 101, 50 μM UK 370106, 500 pM MMP-9 inhibitor I, 5 μM Doxycycline, or some combination thereof.
Aderbasib is a selective inhibitor of matrix metalloproteases ADAM10 and ADAM17. Karpas-299 cells were incubated at 1 MM-10 MM cells/ml and treated for 24 hours with concentrations of aderbasib ranging from 320 pM to […].
as §1

[7] = system: PD-L1 mRNA; assay: PD-L1 mRNA expression by RT-PCR in Karpas-299 cells; format: cell-based; conditions: Karpas-299, 50 μM TAPI-0, 24 hours; data not shown
[8] = system: A786-0 (renal cell carcinoma) cells; assay: sPD-L1 ELISA of supernatants of A786-0 cells treated with protease inhibitors; format: cell-based; conditions: A786-0 at 1 MM/ml, interferon plus TAPI-0; interferon alone 923 pg/ml; n=5; FIG. 4E
Experimental: Tumor cells were treated with PBS (placebo) or with various protease inhibitors, including MMP inhibitors TAPI-2 and TAPI-0, aspartic protease inhibitor Pepstatin, cysteine protease inhibitor E-64, serine protease inhibitor Aprotinin, combinations of these inhibitors, and an array of other MMP inhibitors. Cell supernatants were queried for sPD-L1 by ELISA. FIG. 4A, Karpas-299 (lymphoma) cells were treated with the indicated protease inhibitors. FIG. 4B, A786-0 (renal cell carcinoma) cells were treated with the indicated protease inhibitors. FIG. 4C, Dul45 cells were treated with the indicated protease inhibitors. FIG. 4D, Mel-B7H1 (transgenic melanoma) cells were treated with the indicated protease or metalloprotease inhibitors. FIG. 4E is a graph plotting sPD-L1 production induced by interferon treatment or high cell titer in A786-0 cells. Cells grown at 1 MM/ml in control DMSO produced little sPD-L1. […] FIG. 4F is a graph plotting the amount of sPD-L1 in supernatants of Karpas-299 cells treated with control or with varying concentrations of the ADAM10/17 inhibitor aderbasib.
Several tumor cell lines were treated with PBS (placebo) or with various protease inhibitors, including matrix metalloprotease inhibitors TAPI-2 and TAPI-0, aspartic protease inhibitor Pepstatin, cysteine protease inhibitor E-64, serine protease inhibitor Aprotinin, combinations of these inhibitors, and an array of other matrix metalloprotease inhibitors. Cell supernatants were queried for sPD-L1 by ELISA as published elsewhere (Frigola et la., supra). In brief, paired mouse IgG2 monoclonal antibodies against extracellular rhB7-H1 were utilized in a capture-detection plate assay using biotinylation and HRP-streptavidin detection. […] Concentrations were determined by optical density measurements along a known standard curve of rhB7-H1. […] Two-sided, unpaired Student t tests assessed statistical differences in experimental groups except where otherwise indicated. […]

[9] = system: Mel-B7H1 (transgenic melanoma) cells; assay: sPD-L1 ELISA of supernatants of Mel-B7H1 cells; format: cell-based; conditions: FIG. 4D
Experimental: as §2, with “significant. […]” for “significant.”

**Q.** What does the source list for “nivolumab: anti-PD-1 antibody, trade name OPDIVO”?
**A.** rescue of CD8+ T cell survival [1]: did not rescue; survival of CD8+ T cells ([2]; with Karpas-299 supernatant, antibody at 1 μM, 1 μM pembrolizumab among the most effective, FIG. 5C): increased the survival

**Q.** “ADAM17 (TACE): commercially-obtained, recombinant form of ADAM17 (TACE)” was tested. Which “PD-L1 expression (flow cytometry)” value [3] did it give?
**A.** decreased

**Q.** What about the “detectable sPD-L1 secreted” value [4] of the same molecule?
**A.** higher amounts

**Q.** What does the source list for `CC(C)C[C@H](CC(=O)NO)C(=O)N[C@@H](Cc1ccc2ccccc2c1)C(=O)N[C@@H](C)C(N)=O` [TAPI-0]?
**A.** sPD-L1 secretion versus controls [5]: significantly reduced; Karpas-299 production of sB7H1 [6]: inhibited; secretion of sPD-L1 ([6]; Karpas-299, 10 MM cells per ml, 24 hours, 50 μM TAPI-0, vs DMSO, FIG. 4A, p=3.97×10^−7): reduced the secretion of sPD-L1; PD-L1 mRNA expression [7]: without reducing PD-L1 mRNA expression; rate of apoptosis of CD8+ T cells ([2]; 50% supernatant from TAPI-0 treated Karpas-299 cells and 50% fresh media, FIG. 5C): 2.46%; CD8+ T cell death ([2]; Karpas-299 supernatants with added TAPI-0): did not induce cell death; mean sPD-L1 production [8]: 0 pg/mL

**Q.** `CNC(=O)[C@@H](NC(=O)[C@H](CCCc1ccccc1)[C@H](C)N(O)C=O)C(C)(C)C` [GI254023X] was tested. Which “Karpas-299 production of sB7H1” value [6] did it give?
**A.** inhibited

**Q.** What about the sPD-L1 expression [9] of the same molecule?
**A.** most significantly reduced

B1: ADAM10: exogenous recombinant ADAM10 (protein)
chain: TTSAEKNTCQLYIQTDHLFFKYYGTREAVIAQISSHVKAIDTIYQTTDFSGIRNISFMVKRIRINTTADEKDPTNPFRFPNIGVEKFLELNSEQNHDDYCLAYVFTDRDFDDGVLGLAWVGAPSGSSGGICEKSKLYSDGKKKSLNTGIITVQNYGSHVPPKVSHITFAHEVGHNFGSPHDSGTECTPGESKNLGQKENGNYIMYARATSGDKLNNNKFSLCSIRNISQVLEKKRNNCFVESGQPICGNGMVEQGEECDCGYSDQCKDECCFDANQPEGRKCKLKPGKQCSPSQGPCCTAQCAFKSKSEKCRDDSDCAREGICNGFTALCPASDPKPNFTDCNRHTQVCINGQCAGSICEKYGLEECTCASSDGKDDKELCHVCCMKKMDPSTCASTGSVQWSRHFSGRTITLQPGSPCNDFRGYCDVFMRCRLVDADGPLARLKKAIFSPELYENIAE
**Q.** B1 was tested. Which “PD-L1 expression (flow cytometry)” value [3] did it give?
**A.** decreased

From patent US20210361767A1, “RESCUING CANCER PATIENTS FROM RESISTANCE TO TREATMENT WITH INHIBITORS OF PD-1/PD-L1 INTERACTIONS” (Mayo Foundation for Medical Education and Research, priority 2018, published 2021)
